Our source for the IC50 values is ChEMBL document CHEMBL4028852, “Design of a Chemical Probe for the Bromodomain and Plant Homeodomain Finger-Containing (BRPF) Family of Proteins” (J Med Chem, 2017).

In one assay the target is T1, Peregrin (Homo sapiens, UniProt P55201).
T1 sequence (P55201 whole entry): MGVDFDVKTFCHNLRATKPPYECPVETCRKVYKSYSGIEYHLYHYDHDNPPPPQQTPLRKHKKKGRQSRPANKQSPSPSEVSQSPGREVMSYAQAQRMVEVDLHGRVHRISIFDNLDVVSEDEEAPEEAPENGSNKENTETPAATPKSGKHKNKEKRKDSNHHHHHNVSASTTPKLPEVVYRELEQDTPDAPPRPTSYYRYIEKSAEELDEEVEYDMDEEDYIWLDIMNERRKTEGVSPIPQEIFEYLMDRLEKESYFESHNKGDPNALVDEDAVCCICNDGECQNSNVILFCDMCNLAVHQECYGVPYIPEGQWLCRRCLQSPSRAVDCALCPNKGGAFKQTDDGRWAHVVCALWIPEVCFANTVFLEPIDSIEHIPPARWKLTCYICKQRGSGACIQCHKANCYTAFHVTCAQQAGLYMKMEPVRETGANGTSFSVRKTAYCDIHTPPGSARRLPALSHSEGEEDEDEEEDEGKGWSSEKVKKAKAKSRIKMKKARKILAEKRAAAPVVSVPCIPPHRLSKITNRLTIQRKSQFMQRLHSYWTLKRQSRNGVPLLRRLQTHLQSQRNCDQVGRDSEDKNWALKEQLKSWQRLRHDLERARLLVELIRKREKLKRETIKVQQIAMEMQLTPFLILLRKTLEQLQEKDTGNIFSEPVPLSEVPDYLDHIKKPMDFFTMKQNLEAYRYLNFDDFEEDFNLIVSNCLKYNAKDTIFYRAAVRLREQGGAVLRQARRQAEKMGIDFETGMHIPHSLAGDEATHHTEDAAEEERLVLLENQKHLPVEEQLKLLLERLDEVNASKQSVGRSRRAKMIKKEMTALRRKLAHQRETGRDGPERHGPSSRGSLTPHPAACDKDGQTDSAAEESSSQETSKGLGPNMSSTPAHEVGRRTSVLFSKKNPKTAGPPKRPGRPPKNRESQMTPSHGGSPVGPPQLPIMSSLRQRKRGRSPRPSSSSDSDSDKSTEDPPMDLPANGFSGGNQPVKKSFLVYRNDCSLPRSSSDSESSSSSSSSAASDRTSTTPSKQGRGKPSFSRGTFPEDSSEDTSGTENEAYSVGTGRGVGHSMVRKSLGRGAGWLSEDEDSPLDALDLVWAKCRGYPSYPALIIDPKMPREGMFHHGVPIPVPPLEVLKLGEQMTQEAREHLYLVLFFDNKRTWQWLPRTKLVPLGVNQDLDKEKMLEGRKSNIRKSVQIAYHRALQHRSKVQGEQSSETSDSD
Nature of the assay: Inhibition of human BRPF1 (627 to 740 residues) expressed in Escherichia coli BL21 after 1 hr by BROMOscan assay.

The target in assay [1] is T2, Bromodomain-containing protein 9 (Homo sapiens, UniProt Q9H8M2).
T2 sequence (Q9H8M2 whole entry): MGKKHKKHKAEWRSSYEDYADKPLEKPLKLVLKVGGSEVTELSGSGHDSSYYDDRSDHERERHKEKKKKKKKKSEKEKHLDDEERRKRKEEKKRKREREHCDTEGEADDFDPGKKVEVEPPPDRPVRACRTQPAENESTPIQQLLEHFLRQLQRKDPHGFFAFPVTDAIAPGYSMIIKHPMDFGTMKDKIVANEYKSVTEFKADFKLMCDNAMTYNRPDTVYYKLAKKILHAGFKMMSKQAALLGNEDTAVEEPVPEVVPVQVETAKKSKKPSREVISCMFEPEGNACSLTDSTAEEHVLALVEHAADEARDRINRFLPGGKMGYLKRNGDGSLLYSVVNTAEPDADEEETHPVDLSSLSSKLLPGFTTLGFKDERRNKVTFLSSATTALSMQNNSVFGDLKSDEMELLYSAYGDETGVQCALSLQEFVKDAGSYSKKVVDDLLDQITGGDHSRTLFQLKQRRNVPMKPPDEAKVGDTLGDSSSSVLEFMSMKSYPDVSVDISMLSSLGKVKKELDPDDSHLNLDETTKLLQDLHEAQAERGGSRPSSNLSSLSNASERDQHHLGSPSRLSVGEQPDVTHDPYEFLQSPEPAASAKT
Description: Inhibition of human BRD9 (130 to 259 residues) expressed in Escherichia coli BL21 after 1 hr by BROMOscan assay

For assay [2], the target named is T3, Bromodomain-containing protein 1 (Homo sapiens, UniProt O95696).
T3 sequence (O95696 whole entry): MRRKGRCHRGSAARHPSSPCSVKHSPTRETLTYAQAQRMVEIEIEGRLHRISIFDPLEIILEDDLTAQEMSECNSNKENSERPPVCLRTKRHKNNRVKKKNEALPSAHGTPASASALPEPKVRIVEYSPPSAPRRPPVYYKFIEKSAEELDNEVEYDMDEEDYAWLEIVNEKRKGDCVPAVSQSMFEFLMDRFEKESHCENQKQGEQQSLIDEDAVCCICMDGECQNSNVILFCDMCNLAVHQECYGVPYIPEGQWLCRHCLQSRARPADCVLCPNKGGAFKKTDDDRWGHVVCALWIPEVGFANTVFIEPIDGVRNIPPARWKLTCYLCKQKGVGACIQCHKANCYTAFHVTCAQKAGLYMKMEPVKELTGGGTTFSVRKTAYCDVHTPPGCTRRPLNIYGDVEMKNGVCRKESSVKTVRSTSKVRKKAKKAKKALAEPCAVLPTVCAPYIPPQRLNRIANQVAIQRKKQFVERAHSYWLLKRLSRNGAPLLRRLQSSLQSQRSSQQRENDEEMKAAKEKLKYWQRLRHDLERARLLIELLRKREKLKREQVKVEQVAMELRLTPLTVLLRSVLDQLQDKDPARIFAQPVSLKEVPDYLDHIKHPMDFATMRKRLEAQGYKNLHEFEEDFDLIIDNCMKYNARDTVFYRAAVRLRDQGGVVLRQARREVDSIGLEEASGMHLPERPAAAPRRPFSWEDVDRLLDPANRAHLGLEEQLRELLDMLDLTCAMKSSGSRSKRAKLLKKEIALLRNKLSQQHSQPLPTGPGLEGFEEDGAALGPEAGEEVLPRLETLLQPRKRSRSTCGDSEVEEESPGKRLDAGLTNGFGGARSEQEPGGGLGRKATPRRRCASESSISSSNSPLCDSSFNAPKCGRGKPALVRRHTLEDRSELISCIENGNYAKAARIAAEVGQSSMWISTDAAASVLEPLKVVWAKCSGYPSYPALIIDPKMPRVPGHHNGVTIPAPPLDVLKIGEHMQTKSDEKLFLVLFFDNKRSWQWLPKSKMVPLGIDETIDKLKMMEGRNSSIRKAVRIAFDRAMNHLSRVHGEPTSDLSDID
Briefly: Inhibition of human BRPF2 (556 to 688 residues) expressed in Escherichia coli BL21 after 1 hr by BROMOscan assay.

SMILES strings stand for the structures.

Consider `COc1cc(C#N)ccc1S(=O)(=O)Nc1ccc2c(c1)cc(C(C)C)c(=O)n2C`, for which the IC50 (in general, the concentration that gives 50% inhibition) came to 170 nM on Peregrin, 9300 nM in assay [1] and 3300 nM in assay [2].
For `Cn1c(=O)ccc2cc(S(=O)(=O)Nc3ccccc3)ccc21`, the IC50 at Peregrin came to 1000 nM; in assay [1], 9800 nM; in assay [2], 7800 nM.
Regarding `COc1cc(C#N)ccc1S(=O)(=O)Nc1ccc2c(c1)cc(C)c(=O)n2C`, the values for the IC50 (against Peregrin; in assay [1]; in assay [2]) were 3.1 nM, 520 nM and 46 nM, respectively.
